The values below come from US20050261319A1, “Novel 2-amino-4-quinazolinones and 2-amino-4-oxoquinazolones as LXR nuclear receptor binding compounds with partial agonistic properties” (priority 2002, published 2005).

The subject of this assay is FAS and SREBP-1c in HepG2 cells. Description: mRNA content of FAS and SREBP-1c in HepG2 cells (TaqMan). The format is cell-based. The method, then: THP-1 (3×10^5 cells per dish) cells were seeded in […] RPMI-1640 medium (ATTC, Cat. No. 30-2001) containing 10% FCS (GIBCO) and 100 nM TPA and cultivated at 37° C. in 5% CO2 for 24 or 48 hours. HepG2 (4.5×10^5 cells per dish) were seeded in 24 well dishes in 3 ml DMEM Medium containing 10% FCS (GIBCO) and cultivated at 37° C. in 5% CO2 for 48 hours as indicated in FIG. 8B or until they are approx. 60% confluent.
The medium was then removed and replaced with medium containing 10% charcoal/stripped FCS (Hyclone) for 12 h.
LXR compounds are dissolved in DMSO, with the final solvent concentration never exceeding 0.125%. All treatments are done in triplicates and experiments repeated twice. Total RNA is extracted using the Qiagen Rneasy Mini Kit and treated with DNase (DNA free kit, Ambion). RNA is reverse transcribed with Oligo (dT) primer and real-time reverse transcription PCR (TaqMan) is performed using the ABI Prism 7900HT Sequence Detection System and reagents supplied by Applied Biosystems. mRNA steady state levels are normalised to H3 histone (H3F3A) expression levels.
The sequences of forward primers, reverse primers and TaqMan probes are as follows
On the technique in general: Real-time PCR tracks product formation cycle by cycle.

On to `C=CCn1c(N2C3CC(C)(C)CC2(C)C3)nc2ccc(I)cc2c1=O` (centres unmarked) [formula (9)], for which the “upregulation of FAS” value is on record as “does not significantly upregulate” and the “upregulation of SREBP-1c” value is listed as “much reduced”.
